In EP3544951B1, “SUBSTITUTED HEXARIC ACID DERIVATIVES AND USES THEREOF” (Plant Advanced Technologies Pat, priority 2016, dated 2018):

What was measured:
[1] = tested on: astrocytes sains (non traités par le peptide Aβ 1-42); test: Proliferation of pure healthy astrocytes (MTT test, CellTiter 96 Aqueous One Solution); format: cell-based, rat (Wistar); conditions: 4 days incubation, no Aβ 1-42 (Figure 4)
Protocol: En résumé, le cerveau entier d'un embryon âgé de 15 jours de rat (Wistar) est prélevé. Le cerveau entier est dissocié par trypsinisation. Les cellules sont suspendues dans un milieu de culture du milieu DMEM (Dulbecco's modified Eagle's medium) complémenté avec 2% de pénicilline (10,000 U/mL) et d'une solution de streptomycine (10 mg/mL), et 10% de sérum de veau fœtal (FCS). Les cellules sont ensemencées à une densité de 267 000 cellules par cm^2 dans un flacon de culture. Au stade de la confluence cellulaire, le flacon est secoué pendant 3 heures. Le surnageant de la culture cellulaire est enlevé, les cellules sont traitées par une solution de trypsine- EDTA (Pan Biotech) à une concentration finale de 0,05% trypsine et de 0,02% EDTA. Ensuite les cellules sont congelées afin de constituer une lignée cellulaire d'astrocytes.
Les astrocytes (au stade : P4) sont ensemencées à une densité de 4 000 par puits d'une plaque de 96 puits avec de l'acide léontopodique B1 (dissous à différentes concentrations : 100 nM, 1 µM, 10 µM et 50 µM dans le milieu de culture) et sont cultivées à 37°C dans un incubateur contenant 95% d'air et 5% de CO2. Le milieu est changé tous les jours. Les astrocytes sont cultivés pendant 4 jours en présence d'acide léontopodique B1 avant de mesurer son effet sur la prolifération des astrocytes. […]

[2] = tested on: neurones corticaux primaires de rat; test: Survival of primary cortical neurons intoxicated with Aβ 1-42 peptide (MAP-2 staining); format: cell-based; conditions: pre-incubated 1 h before Aβ 1-42 20 µM
Excerpt: (§1) Le but de cette étude est d'évaluer les effets de l'acide léontopodique B1 sur des neurones corticaux primaires de rat, intoxiqués par le peptide Aβ selon le modèle in vitro de la maladie d'Alzheimer décrit dans Callizot et al., 2013 (Callizot N. et al., Operational dissection of β-amyloid cytopathic effects on cultured neurons. J Neurosci Res. 2013, 91: 706-16). La survie des neurones et des astrocytes ainsi que l'intégrité du réseau de neurites sont évaluées.
(§2) Des neurones corticaux de rat sont cultivés comme décrit dans Singer et al., 1999 (Singer C. et al., Mitogen-activated protein kinase pathway mediates estrogen neuroprotection after glutamate toxicity in primary cortical neurons. J Neurosci. 1999, 19: 2455-2463) et Callizot et al. (2013).
(§3) En résumé, des rats femelles gravides sont tuées par dislocation cervicale après 15 jours de gestation. Les fœtus sont collectés et immédiatement placés dans un milieu glacé L15 Leibovitz (Pan Biotech, Batch: 8810315) additionné de 2% pénicilline (10,000 U/mL) et d'une solution de streptomycine (10 mg/mL) (PS; Pan Biotech, batch: 1451013) et 1% de albumine de sérum de bovin (BSA; Pan Biotech, batch: K180713). Le cortex est traité pendant 20 min à 37°C avec une solution de trypsine- EDTA (Pan Biotech, Batch: 3330914) à une concentration finale de 0,05% trypsine et 0,02% EDTA. […]

astrocytes = test: Survival of astrocytes in primary cortical neuron culture intoxicated with Aβ 1-42 peptide (GFAP staining); format: cell-based, rat; conditions: Aβ 1-42 20 µM, 24 h (Figure 3)
Excerpt: as §1, §2, §3

[3] = tested on: réseau de neurites de neurones corticaux primaires; test: Neurite network of primary cortical neurons intoxicated with Aβ 1-42 peptide (MAP-2 staining); format: cell-based, rat; conditions: two lowest concentrations 10 nM, 100 nM; pre-incubated 1 h before Aβ 1-42 20 µM, 24 h (Figure 2)
Excerpt: as §1, §2, §3

Compound: O=C(/C=C/c1ccc(O)c(O)c1)OC(C(=O)O)C(OC(=O)/C=C/c1ccc(O)c(O)c1)C(OC(=O)/C=C/c1ccc(O)c(O)c1)C(O)C(=O)O (stereo not shown) [acide léontopodique B1, acide 3,4,5-tricaféoylhexarique]
- effet sur la prolifération des astrocytes ([1]; 100 nM up to 50 µM): aucun effet significatif
- concentration cellulaire ([1]; highest concentration 50 µM): légère mais non significative diminution
- effet sur la survie des neurones ([2]; 10 nM, 100 nM, 1 µM, 10 µM, 24 h, protective effect follows a bell-shaped curve (Figure 1)): effet significatif et important
- mort neuronale ([2]; 100 nM and 1 µM, 24 h (Figure 1)): aucune mort neuronale n'a été observée
- effet sur la survie des astrocytes (astrocytes; all concentrations (10 nM to 10 µM)): effet protecteur
- mort cellulaire (astrocytes) (astrocytes; three highest concentrations 100 nM, 1 µM, 10 µM): Aucune mort cellulaire n'a été observée
- effet sur le réseau de neurites [3]: effet significatif et important
